EP3076175A1, “DETECTION AND QUANTIFICATION OF O-ACETYL-ADP-RIBOSE AS A READOUT SYSTEM FOR MEASURING THE ACTIVITY OF E.G. SIRTUINS” (Boehringer Ingelheim International GmbH, priority 2015, dated 2016)
Where two headings read alike, the source gives them in different places.

Legend:
GST-tagged AF1521 = biological target: T1, GST-tagged AF1521 (Archaeoglobus fulgidus, UniProt O28751); experiment: Nucleotide ligand binding assay by isothermal calorimetry (ITC); settings: for ΔG: change in Gibbs free energy of binding; for ΔS: change in entropy
T1 construct: For the N-terminal GST fusion of AF1521 the gene for residues 1-192 was synthesized; made in house; host or cells: E. coli BL21 Star (DE3) / BL21 Tuner (DE3)
T1 sequence (O28751 1-192): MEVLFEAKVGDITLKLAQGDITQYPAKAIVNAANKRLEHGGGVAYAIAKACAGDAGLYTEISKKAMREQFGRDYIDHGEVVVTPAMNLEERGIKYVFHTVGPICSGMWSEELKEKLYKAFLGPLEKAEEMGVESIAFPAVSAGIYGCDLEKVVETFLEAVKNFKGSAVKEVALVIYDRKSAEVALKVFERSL
Procedure: Nucleotide binding assays were performed using isothermal calorimetry (ITC) on a ITC200 (Microcal) at 25°C. Protein was buffer exchanged using PD10 columns (GE Healthcare) into 50 mM Tris pH 7.5; 150 mM NaCl and 1 mM TCEP. Nucleotides were resuspended in ITC buffer and their concentration were determined through absorbance at 260 nm. Macro-domain proteins were used at 50 µM concentration, whereas the nucleotides were used at 500 µM. ITC measurements were performed by 20 successive injections of 2 µl of the nucleotides into 280 µl of AF1521 with a duration of 4 seconds and 150 seconds of spacing. Data analysis was done using the software ORIGIN 7.0 (Microcal).

[1] = biological target: T2, GST-tagged macro-domain protein (Archaeoglobus fulgidus, UniProt O28751); experiment: Titration curve: competition with biotinylated ADP-ribose for binding to the macro-domain protein (luminescence signal); settings: rising concentration of competitor against biotinylated ADP-ribose
T2 construct: For the N-terminal GST fusion of AF1521 the gene for residues 1-192 was synthesized; made in house; host or cells: E. coli BL21 Star (DE3) / BL21 Tuner (DE3)
T2 sequence (O28751 1-192): T1 sequence (O28751 1-192)
Procedure: (§1) After that 2 µl of an acetylated peptide (final concentration of 10 µM) mixed with NAD^+ (final concentration of 500 µM, dissolved in assay buffer 1) and 2 µl of SIRT enzyme (final concentration of 20 nM for 1x SIRT (100% CTL) and 200 nM for 10x SIRT (1000% CTL), dissolved in assay buffer 1) are added by a Multidrop combi. After an incubation time of 20 min at room temperature 4 µl biotinylated ADP-ribose (final concentration 50 nM, dissolved in assay buffer 2) and 4 µl GST tagged macro-domain protein (final concentration 50 nM, dissolved in assay buffer 2) are added by a Multidrop combi. After another incubation time of 60 min at room temperature 4 µl of acceptor beads and 4 µl of donor beads (final concentration of each bead-type 20 µg/ml, both dissolved in assay buffer 2) are added by a Multidrop combi. The plates are then sealed and incubated in the dark at room temperature for at least 30 min. After the incubation period, the plates are measured using the Envision reader from Perkin Elmer.
Assay was performed as described in example 4 (general SOP) besides the fact that instead of ADP-ribose 2'/3'-O-acetyl-ADP-ribose was used for the titration curve.
Assay was performed as described in example 4 (general SOP) employing non-biotinylated ADP-ribose for the titration curve.

SIRT1 = biological target: T3, SIRT1 (Homo sapiens, UniProt Q96EB6); experiment: Macro-domain protein assay for SIRT modulators (detection of generated 2'/3'-O-acetyl-ADP-ribose, donor/acceptor beads); type: biochemical; settings: 10x SIRT (200 nM), 10 µM compound
T3 construct: made in house; host or cells: E. coli BL21 Star (DE3)
T3 sequence (Q96EB6 183-664): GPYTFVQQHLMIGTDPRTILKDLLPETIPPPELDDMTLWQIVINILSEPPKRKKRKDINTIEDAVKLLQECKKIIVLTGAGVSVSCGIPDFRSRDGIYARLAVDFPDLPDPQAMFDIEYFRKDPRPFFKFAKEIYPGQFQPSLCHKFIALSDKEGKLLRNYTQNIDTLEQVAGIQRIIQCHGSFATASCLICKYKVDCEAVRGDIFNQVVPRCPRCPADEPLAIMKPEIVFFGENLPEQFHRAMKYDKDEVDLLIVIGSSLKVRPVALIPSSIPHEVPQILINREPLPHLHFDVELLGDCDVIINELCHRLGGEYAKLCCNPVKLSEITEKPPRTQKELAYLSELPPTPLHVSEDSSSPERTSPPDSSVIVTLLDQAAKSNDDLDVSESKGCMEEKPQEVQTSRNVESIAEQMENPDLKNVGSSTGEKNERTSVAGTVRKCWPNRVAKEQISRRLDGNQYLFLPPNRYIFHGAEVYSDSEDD
Procedure: 200 nl of test compound in 100% DMSO (final concentration of compound 10 µM; DMSO 1%) is given in the 384-well plates by a Cybio Cybiwell capillary head pipettor.
as §1, with “Elmer. […]” for “Elmer.”

[2] = ITC at 25°C, protein 50 µM, nucleotide 500 µM, read-out: KD

| SMILES | -TΔS (GST-tagged AF1521; ITC at 25°C) | Kd (GST-tagged AF1521; [2]) | Kd (GST-tagged AF1521; ITC, read-out: KD value) | ΔG (GST-tagged AF1521; ITC at 25°C) | ΔS (GST-tagged AF1521; ITC at 25°C) | luminescence signal [1] | amount of generated 2'/3'-O-acetyl-ADP-ribose (SIRT1) | ΔH (GST-tagged AF1521; change in enthalpy, ITC at 25°C) |
| --- | --- | --- | --- | --- | --- | --- | --- | --- |
| Nc1ncnc2c1ncn2[C@@H]1O[C@H](COP(=O)(O)OP(=O)(O)OC[C@@H](O)[C@@H](O)[C@@H](O)C=NOCC(=O)NCCOCCOCCOCCOCCNC(=O)CCCC[C@@H]2SC[C@@H]3NC(=O)N[C@@H]32)[C@@H](O)[C@H]1O [biotinylated ADP-ribose] | 0.383 kcal/mol | 2550 nM | 2500 nM | -7.64 kcal/mol | -1,3 cal/mol/K |  |  |  |
| Nc1ncnc2c1ncn2[C@@H]1O[C@H](COP(=O)(O)OP(=O)(O)OC[C@H]2OC(O)[C@H](O)[C@@H]2O)[C@@H](O)[C@H]1O (some centres unmarked) [ADP-ribose] |  |  |  |  |  | the luminescence signal decreases |  |  |
| Cc1ccc(C(=O)Nc2ccc(S(=O)(=O)O)c3cc(S(=O)(=O)O)cc(S(=O)(=O)O)c23)cc1NC(=O)c1cccc(NC(=O)Nc2cccc(C(=O)Nc3cc(C(=O)Nc4ccc(S(=O)(=O)O)c5cc(S(=O)(=O)O)cc(S(=O)(=O)O)c45)ccc3C)c2)c1 [Suramin] |  |  |  |  |  |  | reduces the amount of generated 2'/3'-O-acetyl-ADP-ribose |  |
| O=C(Nc1nccs1)c1cccc2ccc(-c3cccc(OC4CCNCC4)c3)nc12 [EX00001253] |  |  |  |  |  |  | reduces the amount of generated 2'/3'-O-acetyl-ADP-ribose |  |
| CC(=O)O[C@@H]1[C@@H](COP(=O)(O)OP(=O)(O)OC[C@H]2O[C@@H](n3cnc4c(N)ncnc43)[C@H](O)[C@@H]2O)OC(O)[C@@H]1O (some centres unmarked) [acetyl ADP-ribose, 2'/3'-O-acetyl-ADP-ribose] | -2.271 kcal/mol | 4140 nM |  | -7.339 kcal/mol | 7,63 cal/mol/K | the luminescence signal decreases |  | -5.07 kcal/mol |
